Measurements as given in patent US8389764B2, “Urea and sulfamide derivatives as inhibitors of TAFIa” (Sanofi, priority 2006, dated 2013).
Numbered stars: 1 amine (or outer) side, 2 acyl side, 3 side chain; on linkers, the order of the positions; unused ones are H or OH. Square brackets hold non-standard residues; d marks the D form. Peptide text beside a SMILES is read from it. * marks the point of attachment. ξ: configuration not given here. dCha = N[C@H](CC1CCCCC1)C(=O)O; Phe(ol) = N[C@H](CO)Cc1ccccc1; Cbz = O=C(OCc1ccccc1)*; CO = O=C([*:1])[*:2]; ξV = CC(C)C(N)C(=O)O

Each compound was assayed against T1, TAFIa (Homo sapiens, UniProt Q96IY4) (assay: TAFIa inhibition, Actichrome plasma TAFI activity kit (American Diagnostica)). Conditions: 15 min preincubation at room temperature, read at 420 nm, duplicate determination of serial dilutions.
T1 construct: purchased American Diagnostica 874TAFIA
T1 sequence (Q96IY4 115-423): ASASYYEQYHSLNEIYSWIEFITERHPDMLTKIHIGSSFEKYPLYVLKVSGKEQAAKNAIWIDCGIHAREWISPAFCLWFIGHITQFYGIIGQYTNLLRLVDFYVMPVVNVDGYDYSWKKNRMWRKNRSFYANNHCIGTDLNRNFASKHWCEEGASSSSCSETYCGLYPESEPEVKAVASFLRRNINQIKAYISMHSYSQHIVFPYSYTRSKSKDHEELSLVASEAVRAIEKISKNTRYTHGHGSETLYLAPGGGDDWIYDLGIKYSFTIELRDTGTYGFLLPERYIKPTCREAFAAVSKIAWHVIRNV
Format: biochemical
Procedure: The enzymic reaction was started by adding 10 μl of TAFIa developer (prediluted 1:2 with assay buffer).
The IC50 values were calculated from the averaged values (duplicate determination) of serial dilutions of the substance with the aid of the Softmax Pro software (version 4.8; Molecular Devices).
CC1CCCC(NC(=O)[C@@H](NC(=O)[C@@H](CCCCNC(=O)OCc2ccccc2)NC(=O)N[C@@H](CCCCN)C(=O)O)C(C)C)C1 (stereo partly drawn) [Example 120] was tested, and the IC50 was 0.615 µM.
In the case of CC(C)[C@H](NC(=O)[C@@H](CCCCNC(=O)OCc1ccccc1)NC(=O)N[C@@H](CCCCN)C(=O)O)C(=O)NCC(C)(C)C [Example 121], the IC50 is reported as 0.37 µM.
Work on CC(C)[C@H](NC(=O)[C@@H](CCCCNC(=O)OCc1ccccc1)NC(=O)N[C@@H](CCCCN)C(=O)O)C(=O)N[C@H](C)c1ccccc1 [Example 122] yielded an IC50 of 0.525 µM.
CC1(C)[C@@H]2CC[C@@]1(C)[C@@H](NC(=O)[C@@H](CC1CCCCC1)NC(=O)N[C@@H](CCCN)C(=O)O)C2 [Example 124] gave an IC50 of 0.018 µM.
CC(C)[C@H](NC(=O)[C@@H](CCCCNC(=O)OCc1ccccc1)NC(=O)N[C@@H](CCCCN)C(=O)O)C(=O)NC(C)C(C)(C)C (stereo partly drawn) [Example 126] showed an IC50 of 0.204 µM.
For CC(C)[C@H](NC(=O)[C@@H](CCCCNC(=O)OCc1ccccc1)NC(=O)N[C@@H](CCCCN)C(=O)O)C(=O)N[C@@H]1C[C@H]1c1ccccc1 [Example 127], the IC50 was 0.693 µM.
With CC1CCCCC1NC(=O)[C@@H](NC(=O)[C@@H](CCCCNC(=O)OCc1ccccc1)NC(=O)N[C@@H](CCCCN)C(=O)O)C(C)C (stereo partly drawn) [Example 128] the IC50 was 0.391 µM.
In the case of CC(C)[C@H](NC(=O)[C@@H](CCCCNC(=O)OCc1ccccc1)NC(=O)N[C@@H](CCCCN)C(=O)O)C(=O)NCc1ccc(Cl)cc1 [Example 129], the IC50 is reported as 0.608 µM.
In the case of COC(=O)[C@H](Cc1ccc(O)cc1)NC(=O)[C@@H](NC(=O)[C@@H](CC1CCCCC1)NC(=O)N[C@@H](CCCCN)C(=O)O)C(C)C [Example 133] ({Lys-CO}-[dCha]-Val-Tyr-OMe), the IC50 is reported as 0.636 µM.
COC(=O)[C@H](Cc1c[nH]c2ccccc12)NC(=O)[C@@H](NC(=O)[C@@H](CCCCNC(=O)OCc1ccccc1)NC(=O)N[C@@H](CCCCN)C(=O)O)C(C)C [Example 134] ({Lys-CO}-[dK](Cbz)-Val-Trp-OMe) showed an IC50 of 0.532 µM.
Work on CC(C)C(NC(=O)[C@@H](CC1CCCCC1)NC(=O)N[C@@H](CCCCN)C(=O)O)C(=O)N[C@H](CO)Cc1ccccc1 (stereo partly drawn) [Example 135] ({Lys-CO}-[dCha]-[ξV]-[Phe(ol)]) yielded an IC50 of 0.522 µM.
With CC(C)[C@H](NC(=O)[C@@H](NC(=O)[C@@H](CC1CCCCC1)NC(=O)N[C@@H](CCCCN)C(=O)O)C(C)C)C(N)=O [Example 137] ({Lys-CO}-[dCha]-Val-Val-NH2) the IC50 was 0.14 µM.
CC(C)C(NC(=O)C(NC(=O)[C@@H](CCCCNC(=O)OCc1ccccc1)NC(=O)N[C@@H](CCCNC(=N)N)C(=O)O)C(C)C)C(N)=O (stereo partly drawn) [Example 139] ({Arg-CO}-[dK](Cbz)-[ξV]-[ξV]-NH2) was tested, and the IC50 was 0.376 µM.
For CC(C)[C@H](NC(=O)[C@@H](NC(=O)[C@@H](CCCCNC(=O)OCc1ccccc1)NC(=O)N[C@@H](CCCCN)C(=O)O)C(C)C)C(N)=O [Example 140] ({Lys-CO}-[dK](Cbz)-Val-Val-NH2), the IC50 was 0.318 µM.
CC[C@@H](C)[C@H](NC(=O)[C@@H](CCCCNC(=O)OCc1ccccc1)NC(=O)N[C@@H](CCCCN)C(=O)O)C(N)=O [Example 142] gave an IC50 of 10.6 µM.
CC1(C)[C@@H]2CC[C@@]1(C)[C@@H](NC(=O)[C@@H](CC1CCCCC1)NC(=O)N[C@@H](CSCCN)C(=O)O)C2 [Example 142a] showed an IC50 of 0.0007 µM.
CC1(C)[C@@H]2CC[C@@]1(C)[C@@H](NC(=O)[C@@H](CC1CCCCC1)NC(=O)N[C@@H](CS(=O)(=O)CCN)C(=O)O)C2 [Example 142b] showed an IC50 of 0.006 µM.
Work on COC(=O)[C@@H](NC(=O)[C@@H](NC(=O)[C@H](Cc1ccccc1)NS(=O)(=O)N[C@@H](CCCCN)C(=O)O)C(C)C)C(C)C [Example 143, (S)-6-Amino-2-(3-{(S)-1-[(S)-1-((S)-1-methoxycarbonyl-2-methyl-propylcarbamoyl)-2-methyl-propylcarbamoyl]-2-phenyl-ethyl}-sulfamidyl)-hexanoic acid] yielded an IC50 of 9.76 µM.
In the case of CC1(C)[C@@H]2CC[C@@]1(C)[C@@H](NC(=O)[C@H](CC1CCC1)NS(=O)(=O)N[C@@H](CCCCN)C(=O)O)C2 [Example 150], the IC50 is reported as 0.357 µM.
Work on CC(C)CNC(=O)[C@@H](NC(=O)[C@H](CC1CCCCC1)NS(=O)(=O)N[C@@H](CCCCN)C(=O)O)C(C)C [Example 169] yielded an IC50 of 0.77 µM.
CC(C)(C)OC(=O)[C@H](CCCCN)NS(=O)(=O)N[C@@H](CC1CCCCC1)C(=O)N[C@@H]1C[C@H]2CC[C@]1(C)C2(C)C [Example 186] was tested, and the IC50 was 22.9 µM.
